For data set [1], the target named is T1, Dihydrofolate reductase (Mus musculus, UniProt P00375).
T1 construct: preparing the appropriate L1210 cell homogenates or subcellular fractions; endogenous in cells; host or cells: L1210 murine lymphoid leukemia cells, homogenate or subcellular fraction
T1 sequence (P00375 1-187): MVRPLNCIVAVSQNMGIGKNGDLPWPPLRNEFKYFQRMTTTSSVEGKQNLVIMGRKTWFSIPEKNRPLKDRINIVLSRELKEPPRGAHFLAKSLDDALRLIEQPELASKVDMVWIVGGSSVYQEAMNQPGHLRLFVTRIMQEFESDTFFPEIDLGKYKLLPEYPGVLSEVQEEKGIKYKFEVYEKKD
Kind of data set: Dihydrofolate reductase activity, L1210. In kind it is biochemical. As to conditions: for Dihydrofolate reductase: 60 min, N=6. An excerpt: (§1) CYTOTOXlCITY OF POLY(PHENOLIC)SULFONATES AND THEIR SODIUM SALTS IN L1210 LYMPHOID LEUKEMIA CELLS Fei Wang, Amy E. Warren, Cheryl R. Barnes and Iris H. Hall* Division of Medicinal Chemistry and Natural Products University of North Carolina Chapel Hill, N.C. […] Because ofthese properties it was surmised that these poly(phenolic)sulfonated compounds may have antineoplastic activity. METHODS Source of Compounds Test compounds were supplied by GeneLabs, Inc. [Redwood City, CA [Table 1]. Radioisotopes were obtained from New England Nuclear [Dupont, Boston, MA]. Substrates and co-factors were purchased om Sigma Chemical Co., [St Louis, MO]. Pentosan sulfate and other antineoplastic standards were obtained from Sigma Chemical Co. Tumor lines were obtained from American Type Culture Collection [Rockville, MD]. 147 Vol. 5, No. 3, 1998 Cytotoxicity ofSodium Poly(Phenolic)Sulfonates in L1210 Lymphoid Leukemia Cells Table 1 Structures of Poly(phenolic)sulfonate Compounds O2R" n Compound R' R" n MW # G1-2041 H OH 8 1489.46 G1-2029 H OH 6 1117.09 G1-2030 H OH 4 744.73 GI-2021 CH3 ONa 8 1777.5 G1-2057 CH3 ONa 4 888.75 GI-2158 CH3 ONa 6 1333.13 GI-2063 OCH3 ONa 8 2001.65 G1-2042 OAc ONa 8 2017.73 Cytotoxicity Poly(phenolic)sulfonates were tested for cytotoxic activity by homogenizing drug in 0.05% Tween 80/H20 to give a mg/ml stock concentration. These solutions were sterilized by passing them through an acrodisc ([…]). The following cell lines were maintained by literature techniques: murine L1210 lymphoid leukemia, P-388 lymphocytic leukemia, rat UMR 106 osteosarcoma, human Tmolt3 acute lymphoblastic T cell leukemia, HUT-8 lymphoma, HeLa-S suspended cervical carcinoma, HeLa solid cervical carcinoma, KB epidermoid nasopharynx, A431 epidermoid carcinoma, colorectal adenocarcinoma SW480, HCT-8 ileocecal adenocarcinoma, lung bronchogenic MB-9812, A549 lung carcinoma, and glioma HS683. Geran et al.'s protocol was used to assess the cytotoxicity of the compounds and standards in each cell line. Cell numbers were determined by the trypan blue exclusion technique. Solid tumor cytotoxicity was determined by Leibovitz et al. 's method utilizing crystal violeeOH and read at 562 nm (Molecular Devices). Values for cytotoxicity were expressed as EDs0 g/ml, i.e. the concentration ofthe compound inhibiting 50% ofcell growth. A value of less than 4 µg/ml was required for significant activity ofgrowth inhibition. Incorporation Studies Incorporation of labeled precursors into 3H-DNA, 3H -RNA and 3H -protein for 10 L1210 cells was obtained. The concentration response for inhibition of DNA, RNA and protein synthesis of the compounds at 25, 50 and 100 l.tM was determined for 60 min incubations. Incorporation of 14C -glycine (53.0 mCi/mmol) into purines was obtained by the method of Cadman et al.[12]. Incorporation of 4C- formate (53.0 mCi/mmol) into pyrimidines was determined by the method of Christopherson et al.[13]. Enzyme Assays Inhibition of various enzyme activities was performed by first preparing the appropriate L1210 cell homogenates or subcellular fractions, then adding the drug to be tested during the enzyme assay. For the concentration response studies, inhibition of enzyme activity was determined at 25, 50 and 100 l.tM of compounds G1-2021, G1-2029, GI-2041 and G1-2063 after 60 min incubations. DNA polymerase Ot activity was determined in cytoplasmic extracts isolated by Eichler et aL's method. The DNA polymerase assay was described by Sedwick et al.[15] using 3H-TTP. Messenger-, ribosomal- and transfer-RNA polymerase enzymes were isolated with different concentrations of ammonium sulfate; individual RNA polymerase activities were determined using 3H -UTP 16,17]. Ribonucleoside reductase activity was measured using 4C -CDP with dithioerythritol. The deoxyribonucleotides 4C -dCDP were separated from the ribonucleotides by TLC on PEI plates. […]

The test system of data set [2] is IMP dehydrogenase. Kind of data set: IMP dehydrogenase activity, L1210. It counts as biochemical, mouse. The conditions noted are these: 60 min, N=6.
Text: as §1, with “Enzyme Assays Inhibition of various enzyme activities was performed by first preparing the appropriate L1210 cell homogenates or subcellular fractions, then adding the drug to be tested during the enzyme assay. For the concentration response studies, inhibition of enzyme activity was determined at 25, 50 and 100 l.tM of compounds G1-2021, G1-2029, GI-2041 and G1-2063 after 60 min incubations.” left out, “The DNA polymerase assay was described by Sedwick et al.[15] using 3H-TTP.” left out, “dithioerythritol.” for “dithioerythritol. The deoxyribonucleotides 4C -dCDP were separated from the ribonucleotides by TLC on PEI plates.”

For data set [3], the system named is L1210 DNA. Kind of data set: L1210 DNA strand scission, alkaline-sucrose gradient. It counts as cell-based, mouse. As to conditions: 100 μM, 24 hr. An excerpt: (§2) CYTOTOXlCITY OF POLY(PHENOLIC)SULFONATES AND THEIR SODIUM SALTS IN L1210 LYMPHOID LEUKEMIA CELLS Fei Wang, Amy E. Warren, Cheryl R. Barnes and Iris H. Hall* Division of Medicinal Chemistry and Natural Products University of North Carolina Chapel Hill, N.C. […] Because ofthese properties it was surmised that these poly(phenolic)sulfonated compounds may have antineoplastic activity. METHODS Source of Compounds Test compounds were supplied by GeneLabs, Inc. [Redwood City, CA [Table 1]. Radioisotopes were obtained from New England Nuclear [Dupont, Boston, MA]. Substrates and co-factors were purchased om Sigma Chemical Co., [St Louis, MO]. […] Cell numbers were determined by the trypan blue exclusion technique. Solid tumor cytotoxicity was determined by Leibovitz et al. 's method utilizing crystal violeeOH and read at 562 nm (Molecular Devices). Values for cytotoxicity were expressed as EDs0 g/ml, i.e. the concentration ofthe compound inhibiting 50% ofcell growth. […] Incorporation of 4C- formate (53.0 mCi/mmol) into pyrimidines was determined by the method of Christopherson et al.[13]. […] DNA polymerase Ot activity was determined in cytoplasmic extracts isolated by Eichler et aL's method. […] Messenger-, ribosomal- and transfer-RNA polymerase enzymes were isolated with different concentrations of ammonium sulfate; individual RNA polymerase activities were determined using 3H -UTP 16,17]. […]

For data set [4], the system named is HeLa-S suspended cervical carcinoma. Kind of data set: Cytotoxicity, HeLa-S3 growth. In kind it is cell-based, human.
Text: as §2

In data set [5] the test system is murine L1210 lymphoid leukemia. It counts as cell-based, mouse. The conditions noted are these: for ED50 converted to: converted from μg/ml.
Text: as §1

Data set [6] concerns the target T2, PRPP amido transferase (Mus musculus, UniProt Q8CIH9).
T2 construct: preparing the appropriate L1210 cell homogenates or subcellular fractions; endogenous in cells; host or cells: L1210 murine lymphoid leukemia cells, homogenate or subcellular fraction
Kind of data set: PRPP amidotransferase activity, L1210. It counts as biochemical. As to conditions: 60 min, N=6.
Text: as §1, with “Enzyme Assays Inhibition of various enzyme activities was performed by first preparing the appropriate L1210 cell homogenates or subcellular fractions, then adding the drug to be tested during the enzyme assay. For the concentration response studies, inhibition of enzyme activity was determined at 25, 50 and 100 l.tM of compounds G1-2021, G1-2029, GI-2041 and G1-2063 after 60 min incubations.” left out, “The DNA polymerase assay was described by Sedwick et al.[15] using 3H-TTP.” left out, “dithioerythritol.” for “dithioerythritol. The deoxyribonucleotides 4C -dCDP were separated from the ribonucleotides by TLC on PEI plates.”

In data set [7] the test system is HeLa solid cervical carcinoma. Kind of data set: Cytotoxicity, solid HeLa growth. It counts as cell-based, human.
Text: as §2

In data set [8] the test system is colorectal adenocarcinoma SW480. Kind of data set: Cytotoxicity, SW480 growth. It counts as cell-based, human.
Text: as §1, with “Geran et al.'s protocol was used to assess the cytotoxicity of the compounds and standards in each cell line.” left out, “A value of less than 4 µg/ml was required for significant activity ofgrowth inhibition. Incorporation Studies Incorporation of labeled precursors into 3H-DNA, 3H -RNA and 3H -protein for 10 L1210 cells was obtained. The concentration response for inhibition of DNA, RNA and protein synthesis of the compounds at 25, 50 and 100 l.tM was determined for 60 min incubations. Incorporation of 14C -glycine (53.0 mCi/mmol) into purines was obtained by the method of Cadman et al.[12].” left out, “Enzyme Assays Inhibition of various enzyme activities was performed by first preparing the appropriate L1210 cell homogenates or subcellular fractions, then adding the drug to be tested during the enzyme assay. For the concentration response studies, inhibition of enzyme activity was determined at 25, 50 and 100 l.tM of compounds G1-2021, G1-2029, GI-2041 and G1-2063 after 60 min incubations.” left out, “The DNA polymerase assay was described by Sedwick et al.[15] using 3H-TTP.” left out, “dithioerythritol.” for “dithioerythritol. The deoxyribonucleotides 4C -dCDP were separated from the ribonucleotides by TLC on PEI plates.”

The test system of data set [9] is KB epidermoid nasopharynx. Kind of data set: Cytotoxicity, KB growth. In kind it is cell-based, human.
Text: as §2, with “MO]. Pentosan sulfate and other antineoplastic standards were obtained from Sigma Chemical Co. Tumor lines were obtained from American Type Culture Collection [Rockville, MD].” for “MO].”, “16,17]. Ribonucleoside reductase activity was measured using 4C -CDP with dithioerythritol.” for “16,17].”

Where [10] appears, read: concentration inhibiting 50% of cell growth.

Structures are written as SMILES. ≈ marks a conversion by molar mass, not a printed value.

T2 sequence (Q8CIH9 12-517): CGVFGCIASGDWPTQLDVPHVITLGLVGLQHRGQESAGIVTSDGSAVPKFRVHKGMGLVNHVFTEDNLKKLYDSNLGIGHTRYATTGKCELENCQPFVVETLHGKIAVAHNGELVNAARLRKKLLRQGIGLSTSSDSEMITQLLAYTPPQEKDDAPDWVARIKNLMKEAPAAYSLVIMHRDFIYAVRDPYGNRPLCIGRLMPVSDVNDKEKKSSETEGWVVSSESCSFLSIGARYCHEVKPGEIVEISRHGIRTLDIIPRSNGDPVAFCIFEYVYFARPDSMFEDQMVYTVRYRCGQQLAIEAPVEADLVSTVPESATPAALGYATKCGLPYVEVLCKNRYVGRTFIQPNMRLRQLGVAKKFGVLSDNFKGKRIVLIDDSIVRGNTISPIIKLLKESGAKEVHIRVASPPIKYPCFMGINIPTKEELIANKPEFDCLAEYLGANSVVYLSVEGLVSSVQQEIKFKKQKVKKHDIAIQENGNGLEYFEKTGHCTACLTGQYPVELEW

Turning to `O=S(=O)(O)c1cc2c(O)c(c1)Cc1cc(S(=O)(=O)O)cc(c1O)Cc1cc(S(=O)(=O)O)cc(c1O)Cc1cc(S(=O)(=O)O)cc(c1O)Cc1cc(S(=O)(=O)O)cc(c1O)Cc1cc(S(=O)(=O)O)cc(c1O)C2` [GI-2029], the Dihydrofolate reductase is 108+5% of Control in [1] (50 μM) and 127+6% of Control in data set [1] (100 μM). For the same compound, the IMP dehydrogenase in [2] (25 μM) was 270+5% of Control; in data set [2] (50 μM) it was 184+6% of Control. In addition, in data set [3], the “L1210 DNA fragmentation, in words” value was “more moderated”. The “growth suppression, in words” value in [4] is given as “best activity”. Also, the “cytotoxic activity, in words” value in data set [5] is reported as “most potent activity”. Moreover, in data set [5], the “ED50 converted to” value is 1.362 µM. The PRPP amido transferase in data set [6] (50 μM) was 30+3% of Control.
`COc1c2cc(S(=O)(=O)[O-])cc1Cc1cc(S(=O)(=O)[O-])cc(c1OC)Cc1cc(S(=O)(=O)[O-])cc(c1OC)Cc1cc(S(=O)(=O)[O-])cc(c1OC)Cc1cc(S(=O)(=O)[O-])cc(c1OC)Cc1cc(S(=O)(=O)[O-])cc(c1OC)Cc1cc(S(=O)(=O)[O-])cc(c1OC)Cc1cc(S(=O)(=O)[O-])cc(c1OC)C2.[Na+].[Na+].[Na+].[Na+].[Na+].[Na+].[Na+].[Na+]` [GI-2021]: the “dihydrofolate reductase activity reduced” value in data set [1] (100 μM after hr) is given as 24%. Moreover, the Dihydrofolate reductase in data set [1] (100 μM) is 76+4% of Control. The “activity, in words” value in data set [7] is reported as “effective”; in data set [8] it was “active”. In addition, the ED50 in [7] (setting [10]) was 1.97 µg/mL; in data set [8] (setting [10]), “less than 2 μg/ml”. Moreover, the IMP dehydrogenase in [2] (25 μM) is recorded as 124+4% of Control. Besides, the “L1210 DNA fragmentation, in words” value in data set [3] is “more evident”. Further, the “ED50 converted to” value in data set [5] was determined as 0.777 µM. The PRPP amido transferase is reported as 62+5% of Control in data set [6] (25 μM) and 61+4% of Control in data set [6] (50 μM).
On to `O=S(=O)(O)c1cc2c(O)c(c1)Cc1cc(S(=O)(=O)O)cc(c1O)Cc1cc(S(=O)(=O)O)cc(c1O)Cc1cc(S(=O)(=O)O)cc(c1O)Cc1cc(S(=O)(=O)O)cc(c1O)Cc1cc(S(=O)(=O)O)cc(c1O)Cc1cc(S(=O)(=O)O)cc(c1O)Cc1cc(S(=O)(=O)O)cc(c1O)C2` [GI-2041], for which the results for the Dihydrofolate reductase in data set [1] (25 μM) and in data set [1] (100 μM) were 105+5% of Control and 92+5% of Control, respectively. For the same compound, the “activity, in words” value in data set [9] was “active”. The same compound displayed an ED50 in data set [9] (setting [10]) of 2.60 µg/mL (≈ 1.75 µM). Besides, the results for the IMP dehydrogenase in data set [2] (25 μM) and in data set [2] (100 μM) were 131+6% of Control and 70+4% of Control, respectively. For the same compound, the “cytotoxic activity, in words” value in data set [5] was “most potent activity”. Also, the “ED50 converted to” value in [5] amounted to 1.263 µM. For the same compound, the PRPP amido transferase in data set [6] (50 μM) is reported as 38+3% of Control; in [6] (100 μM) it was 10+2% of Control.

These data come from article PMC2365111, “Cytotoxicity of Poly(Phenolic)Sulfonates and Their Sodium Salts in L1210 Lymphoid Leukemia Cells” (Metal-Based Drugs, 1998).
